# Laboratory results from US20230079819A1, “COMPOUNDS AND USES THEREOF” (Foghorn Therapeutics Inc., priority 2019, published 2023).
# Where two headings read alike, the source gives them in different places.
# Columns and labels:
# [1] = system: uveal melanoma cell lines (92-1, MP41, MP38, MP46); assay: Growth of uveal melanoma cell lines with compound 67, 3 days, Cell-titer glo; assay type: cell-based; settings: 0 to 10 micromolar
# [2] = system: uveal melanoma cell lines 92-1 or MP41; assay: Growth inhibition of uveal melanoma cell lines, compound 67 compared with clinical PKC and MEK inhibitors, 3 days, Cell-titer glo; assay type: cell-based; settings: vs LXS196 and Selumetinib
# [3] = biological target: T1, BRM (Homo sapiens, UniProt P51531); assay: ATPase catalytic activity of BRM, ADP-Glo in vitro biochemical assay; settings: 30 nM BRM, 400 μM ATP, read-out: BRM IP50
# T1 construct: made in house; host or cells: High Five insect cells
# [4] = biological target: T2, BRG-1 (Homo sapiens, UniProt P51532); assay: ATPase catalytic activity of BRG-1, ADP-Glo in vitro biochemical assay; settings: 30 nM BRG-1, 400 μM ATP, read-out: BRG1 IP50
# T2 construct: made in house; host or cells: High Five insect cells
# [5] = system: uveal melanoma cell lines 92-1 or MP41; assay: Growth inhibition of uveal melanoma cell lines, Compound A compared with clinical PKC and MEK inhibitors, 3 days, Cell-titer glo; assay type: cell-based; settings: vs LXS196 and Selumetinib
# [6] = system: several cancer cell lines; assay: Inhibition of cell proliferation of several cancer cell lines; assay type: cell-based
# [7] = system: uveal melanoma cell line MP41; assay: Inhibition of cell proliferation of uveal melanoma cell line MP41; assay type: cell-based
# [8] = system: uveal melanoma cell line 92-1; assay: Inhibition of cell proliferation of uveal melanoma cell line 92-1; assay type: cell-based
# [9] = system: MP41 uveal melanoma cells, parental and PKCi-resistant; assay: 7-day growth inhibition assay in parental and PKC inhibitor-resistant MP41 cells; assay type: cell-based; settings: 7-day assay
# [10] = system: parental and PKC-inhibitor refractory uveal melanoma cell lines; assay: Inhibition of cell proliferation of parental and PKC-inhibitor refractory uveal melanoma cell lines; assay type: cell-based
# [11] = 92-1 or MP41, 3 days, 0 to 10 micromolar
# T2 sequence (P51532 whole entry): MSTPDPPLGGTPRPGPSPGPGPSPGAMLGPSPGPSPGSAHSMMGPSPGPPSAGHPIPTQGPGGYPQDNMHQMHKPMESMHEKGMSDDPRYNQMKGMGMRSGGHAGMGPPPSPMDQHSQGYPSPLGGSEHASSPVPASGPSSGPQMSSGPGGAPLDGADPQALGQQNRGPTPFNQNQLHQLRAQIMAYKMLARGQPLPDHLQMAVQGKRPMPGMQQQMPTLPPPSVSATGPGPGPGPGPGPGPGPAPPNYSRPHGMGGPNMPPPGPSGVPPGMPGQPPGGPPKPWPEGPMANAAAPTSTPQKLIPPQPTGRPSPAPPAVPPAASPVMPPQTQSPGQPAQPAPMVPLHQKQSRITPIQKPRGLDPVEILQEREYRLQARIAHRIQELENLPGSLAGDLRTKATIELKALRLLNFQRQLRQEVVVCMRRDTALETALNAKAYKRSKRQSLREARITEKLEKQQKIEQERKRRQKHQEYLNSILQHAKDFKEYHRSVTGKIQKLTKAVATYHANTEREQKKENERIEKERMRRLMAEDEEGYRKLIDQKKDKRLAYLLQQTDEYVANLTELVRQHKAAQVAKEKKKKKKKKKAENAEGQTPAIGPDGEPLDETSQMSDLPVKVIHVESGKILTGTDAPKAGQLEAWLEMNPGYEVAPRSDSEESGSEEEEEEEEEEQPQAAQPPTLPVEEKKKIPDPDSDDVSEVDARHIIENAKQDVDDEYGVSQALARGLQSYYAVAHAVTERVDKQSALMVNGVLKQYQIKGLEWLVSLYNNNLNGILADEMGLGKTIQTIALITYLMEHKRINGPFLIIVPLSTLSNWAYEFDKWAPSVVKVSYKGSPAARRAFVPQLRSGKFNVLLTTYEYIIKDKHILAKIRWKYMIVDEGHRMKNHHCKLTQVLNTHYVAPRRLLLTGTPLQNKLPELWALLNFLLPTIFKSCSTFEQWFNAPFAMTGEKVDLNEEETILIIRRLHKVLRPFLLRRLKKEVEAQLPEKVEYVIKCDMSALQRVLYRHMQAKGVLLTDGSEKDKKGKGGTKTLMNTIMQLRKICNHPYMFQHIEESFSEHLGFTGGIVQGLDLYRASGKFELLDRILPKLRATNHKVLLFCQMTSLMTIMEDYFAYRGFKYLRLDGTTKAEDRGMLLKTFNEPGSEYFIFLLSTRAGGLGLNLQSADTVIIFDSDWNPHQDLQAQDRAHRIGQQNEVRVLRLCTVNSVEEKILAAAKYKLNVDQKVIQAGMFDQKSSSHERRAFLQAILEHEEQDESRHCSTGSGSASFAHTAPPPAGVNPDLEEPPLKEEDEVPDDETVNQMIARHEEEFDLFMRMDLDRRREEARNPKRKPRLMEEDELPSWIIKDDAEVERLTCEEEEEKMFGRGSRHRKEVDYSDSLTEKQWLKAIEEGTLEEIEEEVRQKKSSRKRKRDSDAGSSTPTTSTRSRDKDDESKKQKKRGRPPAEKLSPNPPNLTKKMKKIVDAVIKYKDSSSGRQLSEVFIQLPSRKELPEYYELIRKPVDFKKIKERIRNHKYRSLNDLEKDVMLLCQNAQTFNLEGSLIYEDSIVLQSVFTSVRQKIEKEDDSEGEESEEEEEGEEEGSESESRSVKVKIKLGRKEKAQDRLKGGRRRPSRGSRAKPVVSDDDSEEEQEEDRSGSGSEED
# T1 sequence (P51531 whole entry): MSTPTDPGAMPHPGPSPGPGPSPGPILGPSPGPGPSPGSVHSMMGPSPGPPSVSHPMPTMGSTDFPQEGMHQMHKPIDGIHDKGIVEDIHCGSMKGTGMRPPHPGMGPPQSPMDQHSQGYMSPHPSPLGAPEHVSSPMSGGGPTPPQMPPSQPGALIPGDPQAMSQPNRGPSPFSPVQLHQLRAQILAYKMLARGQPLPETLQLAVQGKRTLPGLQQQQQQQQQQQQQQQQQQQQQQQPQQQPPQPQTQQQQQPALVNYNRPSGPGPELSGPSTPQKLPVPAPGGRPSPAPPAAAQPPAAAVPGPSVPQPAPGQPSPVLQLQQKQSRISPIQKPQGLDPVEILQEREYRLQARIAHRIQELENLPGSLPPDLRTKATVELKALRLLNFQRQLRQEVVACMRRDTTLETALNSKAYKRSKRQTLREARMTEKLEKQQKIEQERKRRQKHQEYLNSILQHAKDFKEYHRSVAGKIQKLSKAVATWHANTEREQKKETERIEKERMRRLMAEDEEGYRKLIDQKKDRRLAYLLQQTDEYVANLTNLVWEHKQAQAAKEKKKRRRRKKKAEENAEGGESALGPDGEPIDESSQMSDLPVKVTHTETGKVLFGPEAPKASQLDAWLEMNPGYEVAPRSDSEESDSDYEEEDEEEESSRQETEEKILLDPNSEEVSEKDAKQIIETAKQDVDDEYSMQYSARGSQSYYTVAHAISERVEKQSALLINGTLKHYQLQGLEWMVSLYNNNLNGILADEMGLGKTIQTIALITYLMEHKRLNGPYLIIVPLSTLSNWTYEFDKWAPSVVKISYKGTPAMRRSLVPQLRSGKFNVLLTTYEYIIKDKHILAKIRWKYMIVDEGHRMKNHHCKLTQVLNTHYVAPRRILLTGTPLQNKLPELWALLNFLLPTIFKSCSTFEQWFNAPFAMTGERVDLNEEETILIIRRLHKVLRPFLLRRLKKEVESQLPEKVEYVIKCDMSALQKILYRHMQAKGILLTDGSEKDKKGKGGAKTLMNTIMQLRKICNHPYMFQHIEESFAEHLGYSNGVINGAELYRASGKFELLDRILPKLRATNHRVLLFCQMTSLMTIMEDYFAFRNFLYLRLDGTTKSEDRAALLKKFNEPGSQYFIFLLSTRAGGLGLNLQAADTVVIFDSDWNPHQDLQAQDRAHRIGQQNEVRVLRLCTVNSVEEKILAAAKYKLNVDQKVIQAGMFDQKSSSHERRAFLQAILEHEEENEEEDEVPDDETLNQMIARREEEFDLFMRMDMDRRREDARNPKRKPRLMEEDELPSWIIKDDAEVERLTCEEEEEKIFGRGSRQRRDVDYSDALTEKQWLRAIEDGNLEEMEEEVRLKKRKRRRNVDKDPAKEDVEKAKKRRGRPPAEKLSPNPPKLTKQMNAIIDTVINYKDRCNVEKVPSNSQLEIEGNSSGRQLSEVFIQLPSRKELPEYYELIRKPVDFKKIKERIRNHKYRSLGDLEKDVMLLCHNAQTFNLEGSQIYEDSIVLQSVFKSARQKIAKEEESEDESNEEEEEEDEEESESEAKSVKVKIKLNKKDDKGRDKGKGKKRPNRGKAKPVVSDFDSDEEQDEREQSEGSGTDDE
Structure (SMILES),IC50 [3] [nM],IC50 [4] [nM],further results
"CSCC[C@H](NC(=O)c1ccn(S(C)(=O)=O)c1)C(=O)Nc1nc(-c2cccc(-c3ccncc3)c2)cs1 [Compound 67, (S)-1-(methylsulfonyl)-N-(4-(methylthio)-1-oxo-1-((4-(3-(pyridin-4-yl)phenyl)thiazol-2-yl)amino)butan-2-yl)-1H-pyrrole-3-carboxamide]",–,–,"growth inhibition in uveal melanoma cell lines (FIG. 5) [1]: potent growth inhibition; growth inhibition of uveal melanoma cells compared with clinical PKC and MEK inhibitors (FIG. 6A, 6B) [2, 11]: more potent effects on growth inhibition; onset of growth inhibition compared with clinical PKC and MEK inhibitors ([2]; 92-1 or MP41): faster onset of growth inhibition"
Cn1ccc2ccc(-c3csc(NC(=O)CNC(=O)c4ncn(C56CC(C5)C6)n4)n3)cc2c1=O [Compound 782],–,–,IC50 ([3]; ATPase catalytic activity): > 100 nM; IC50 ([4]; ATPase catalytic activity): > 100 nM
CN1CCOc2ccc(-c3csc(NC(=O)CNC(=O)c4cn(C(C)(C)C#N)cn4)n3)cc21 [Compound 784],–,–,IC50 ([3]; ATPase catalytic activity): > 10 nM; IC50 ([4]; ATPase catalytic activity): > 10 nM
CC(C)(C#N)n1cnc(C(=O)NCC(=O)Nc2nc(-c3cc(F)c4c(c3)OCC4)cs2)c1 [Compound 785],–,–,IC50 ([3]; ATPase catalytic activity): > 10 nM; IC50 ([4]; ATPase catalytic activity): > 10 nM
C[C@@H]1CN(c2cccc(-c3csc(NC(=O)CNC(=O)c4ccn(C(C)(C)C#N)n4)n3)n2)C[C@H](C)O1 [Compound 786],< 10,> 10,–
CN1CCOc2ccc(-c3csc(NC(=O)CNC(=O)c4ccn(C(C)(C)C#N)n4)n3)cc21 [Compound 787],> 10,> 10,–
N#CC1(n2cnc(C(=O)NCC(=O)Nc3nc(-c4cc(F)c5c(c4)OCC5)cs3)c2)CC1 [Compound 788],> 100,> 100,–
Cn1ccc(-c2cccc(-c3csc(NC(=O)CNC(=O)c4ccn(C(C)(C)C#N)n4)n3)c2)n1 [Compound 790],> 10,> 10,–
CC(C)(C#N)n1ccc(C(=O)NCC(=O)Nc2nc(-c3cc(F)c4c(c3)OCC4)cs2)n1 [Compound 791],> 10,> 10,–
C[C@H](NC(=O)c1ccn(C(C)(C)C)n1)C(=O)Nc1nc(-c2ccc3ccn(C)c(=O)c3c2)cs1 [Compound 792],> 100,> 100,–
Cn1ccc2ccc(-c3csc(NC(=O)CNC(=O)c4ccn(C5(C#N)CC5)n4)n3)cc2c1=O [Compound 793],> 10,> 10,–
N#CC1(n2ccc(C(=O)NCC(=O)Nc3nc(-c4cccc(OC(F)(F)F)c4)cs3)n2)CC1 [Compound 794],> 100,> 100,–
C[C@@H]1CN(c2cccc(-c3csc(NC(=O)[C@H](C)NC(=O)c4ccn(C5(C#N)CC5)n4)n3)n2)C[C@H](C)O1 [Compound 795],> 10,> 100,–
N#CC1(n2ccc(C(=O)NCC(=O)Nc3nc(-c4cc(F)cc(OC5CC5)c4)cs3)n2)CC1 [Compound 796],> 100,> 100,–
C[C@@H]1CN(c2cccc(-c3csc(NC(=O)[C@H](C)NC(=O)c4cn(C5(C)COC5)cn4)n3)n2)C[C@H](C)O1 [Compound 797],> 100,> 100,–
Cn1ccc(-c2cccc(-c3csc(NC(=O)CNC(=O)c4ccn(C5(C)COC5)n4)n3)c2)n1 [Compound 798],> 100,> 100,–
C[C@H](NC(=O)c1cn(C2(C)COC2)cn1)C(=O)Nc1nc(-c2ccc3ccn(C)c(=O)c3c2)cs1 [Compound 801],> 100,> 100,–
COC[C@H](NC(=O)c1cn(C(C)(C)C#N)cn1)C(=O)Nc1nc(-c2ccc3ccn(C)c(=O)c3c2)cs1 [Compound 802],> 10,> 10,–
N#CC1(n2ccc(C(=O)NCC(=O)Nc3nc(-c4cc(F)c5c(c4)OCC5)cs3)n2)CC1 [Compound 803],> 10,> 100,–
COC[C@H](NC(=O)c1cn(C2(C)COC2)cn1)C(=O)Nc1nc(-c2ccc3ccn(C)c(=O)c3c2)cs1 [Compound 804],> 100,> 100,–
C[C@H](NC(=O)c1ccn(C2(C#N)CC2)n1)C(=O)Nc1nc(-c2ccc3ccn(C)c(=O)c3c2)cs1 [Compound 805],> 100,> 100,–
C[C@@H]1CN(c2cccc(-c3csc(NC(=O)CNC(=O)c4ccn(C5(C#N)CC5)n4)n3)n2)C[C@H](C)O1 [Compound 806],> 10,> 10,–
CN1CCOc2ccc(-c3csc(NC(=O)CNC(=O)c4ccn(C5(C#N)CC5)n4)n3)cc21 [Compound 811],> 10,> 100,–
CSCC[C@H](NC(=O)c1ccc(N)cc1)C(=O)Nc1nc(-c2cccc(-c3ccncc3)c2)cs1 [Compound A],–,–,"growth inhibition of uveal melanoma cells compared with clinical PKC and MEK inhibitors (FIG. 2A, 2B) [5, 11]: comparable growth inhibition; onset of inhibition compared with clinical PKC and MEK inhibitors ([5]; 92-1 or MP41): faster onset of inhibition; inhibition of cell proliferation [6]: inhibition of cell proliferation; inhibition of cell proliferation [7]: inhibition of cell proliferation; inhibition of cell proliferation [8]: inhibition of cell proliferation"
"CC1(N)CCN(c2cccnc2NC(=O)c2nc(-c3ncccc3C(F)(F)F)cnc2N)CC1 [LXS196, reference compound]",–,–,growth tolerance of PKCi-resistant cells relative to parental MP41 cell line (FIG. 7A) [9]: could tolerate growth at higher concentrations; inhibition of cell proliferation [10]: inhibition of cell proliferation; inhibition of cell proliferation [7]: inhibition of cell proliferation; inhibition of cell proliferation [8]: inhibition of cell proliferation

# More lines, main results first:
IC50 [3] [nM],IC50 [4] [nM],Structure (SMILES),further results
> 100,> 100,COC[C@H](NC(=O)c1ccn(C2(C#N)CC2)n1)C(=O)Nc1nc(-c2ccc3ccn(C)c(=O)c3c2)cs1 [Compound 812],–
> 10,> 100,Cn1ccc(-c2cccc(-c3csc(NC(=O)CNC(=O)c4ccn(C5(C#N)CC5)n4)n3)c2)n1 [Compound 813],–
> 10,> 100,N#CC1(n2ccc(C(=O)NCC(=O)Nc3nc(-c4cccc(N5CCC5)c4)cs3)n2)CC1 [Compound 814],–
> 100,> 100,COC[C@H](NC(=O)c1ccn(C2(C#N)CC2)n1)C(=O)Nc1nc(-c2cccc(-c3ccn(C)n3)c2)cs1 [Compound 815],–
> 10,> 10,COC[C@H](NC(=O)c1ccn(C(C)(C)C#N)n1)C(=O)Nc1nc(-c2ccc3ccn(C)c(=O)c3c2)cs1 [Compound 816],–
> 10,> 10,COC[C@H](NC(=O)c1ccn(C(C)(C)C#N)n1)C(=O)Nc1nc(-c2cc(C)cc(N3C[C@@H](C)O[C@@H](C)C3)n2)cs1 [Compound 817],–
> 10,> 10,COC[C@H](NC(=O)c1cn(C(C)(C)C#N)cn1)C(=O)Nc1nc(-c2cc(C)cc(N3C[C@@H](C)O[C@@H](C)C3)n2)cs1 [Compound 818],–
> 10,> 10,C[C@@H]1CN(c2cccc(-c3csc(NC(=O)CNC(=O)c4cn(C(C)(C)C#N)cn4)n3)n2)C[C@H](C)O1 [Compound 819],–
> 100,> 100,CC(C)(C)c1cnc(C(=O)NCC(=O)Nc2nc(-c3cccc(N4CCC4)c3)cs2)s1 [Compound 820],–
> 10,> 10,COC[C@H](NC(=O)c1ncc(C(C)(C)C)o1)C(=O)Nc1nc(-c2cccc(-c3cnn(C)n3)c2)cs1 [Compound 821],–
> 10,> 100,C[C@@H]1CN(c2cccc(-c3csc(NC(=O)CNC(=O)c4ncc(C(C)(C)C)s4)n3)n2)C[C@H](C)O1 [Compound 822],–
< 10,> 10,C[C@@H]1CN(c2cccc(-c3csc(NC(=O)CNC(=O)c4ncc(C(C)(C)C)o4)n3)c2)C[C@H](C)O1 [Compound 823],–
> 100,> 100,COc1cnc(C(=O)NCC(=O)Nc2nc(-c3cccc(N4C[C@@H](C)O[C@@H](C)C4)n3)cs2)o1 [Compound 824],–
< 10,> 10,COC[C@H](NC(=O)c1ncc(C(C)(C)C)o1)C(=O)Nc1nc(-c2cc(F)cc(-c3cnn(C)n3)c2)cs1 [Compound 825],–
> 10,> 10,C[C@@H]1CN(c2cccc(-c3csc(NC(=O)CNC(=O)c4ncc(C5(C)COC5)o4)n3)n2)C[C@H](C)O1 [Compound 826],–
< 10,> 10,C[C@@H]1CN(c2cccc(-c3csc(NC(=O)CNC(=O)c4ncc(C(C)(C)C)o4)n3)n2)C[C@H](C)O1 [Compound 827],–
